Values of other authors, collected in patent US9388155B1, “Coumarin derivatives for cancer therapy” (Wellesley College, priority 2013, dated 2016).

Tested on: pancreatic cancer cell line PANC-1
Conditions: PANC-1, nutrient starvation conditions, within 24 hours

## CC(C)(OC(=O)C=Cc1ccc(O)cc1)C1Cc2c(ccc3ccc(=O)oc23)O1 (stereo not shown) [Angelmarin, 11-O-(p-hydroxy-cinnamoyl) columbianetin]
  cytotoxicity: 0.01 µg/mL
